Patent US9138424B2, “Methods and compositions for treating cornelia de lange syndrome” (Saint Louis University, priority 2012, dated 2015)

Tests used:
[1] = test system: Drosophila ct^K mutation in the cut gene (Nipped-B dosage sensitive); test: ct^K wing margin-nicking phenotype after feeding larvae; format: in vivo; conditions: in food from early larval stages (hatching) until pupariation; vs solvent control; FIG. 2
Description: Controls were feed the solvent that was used to dissolve the compounds (DMSO for Indomethacin, PBS for Acemetacin).
(§1) PLoS One; 4(7):e6202, herein incorporated by reference.

Nipped-B mRNA = test: Nipped-B RNA levels in cultured ML-DmBG3 cells by quantitative RT-PCR; format: cell-based, Drosophila; conditions: FIG. 3; for effect on Nipped-B RNA in Nipped-B RNAi cells: ML-DmBG3 cells treated with double-stranded RNA to destabilize Nipped-B RNA; for Nipped-B gene RNA transcripts: ML-DmBG3 cells, treatment for 48 hours, RpL32 as standard
Description: as §1

[2] = test system: Drosophila N^spl-1 mutation in the Notch receptor gene; test: N^spl-1 small rough eye phenotype after treatment; format: in vivo; conditions: data not shown
Description: Potential therapeutic compounds may be assayed for their ability to elevate expression of the Nipped-B gene which will enhance the N^spl-1 phenotype, resulting in a decrease in the size of the eye relative to similar untreated subjects.
as §1
The N^spl-1 mutation in the Notch receptor gene causes a small rough eye phenotype. […] (Rollins et a al., (1999) Genetics; 152 (2):577-93).

cohesin-dependent genes = test: Effect of cohesin depletion on expression of other genes in cultured Drosophila cells; format: cell-based; conditions: not shown
Description: as §1

[3] = test system: Drosophila cells (ML-DmBG3)
[4] = test system: yeast scc2 and mis4 mutants; test: Growth of temperature-sensitive cohesin/NIPBL-ortholog mutant yeast strains at semipermissive temperature (optical density); format: cell-based, Saccharomyces cerevisiae; Schizosaccharomyces pombe; conditions: relative to vehicle control and parental strains, data not shown
Description: as §1
The Inventors began their screening with a library of FDA-approved drugs for their ability to improve the growth of yeast strains with temperature-sensitive mutations in the NIPBL homologs or orthologs. These included the scc2-4 (Nipped-B) mutation, the smc3-42 (cohesin) mutation, mcd1-1 (cohesin) and pds5-1 (Pds5 cohesion maintenance factor) mutation in Saccharomyces cerevisiae, and the mis4-242 (Nipped-B) mutation, and rad21-K1 (cohesin) mutation in Schizosaccharomyces pombe. […] Compounds that improved the growth rate and/or growth maxima of one or more of the mutant strains relative to the parental strains were retested. An improvement in growth rate was defined as a reproducible increase in either the rate of cell division of a mutant yeast strain during the logarithmic growth or the maximal culture density or both as determined by taking the optical density of the culture every 30 min relative to a vehicle control, and the wild-type yeast controls. […] For this reason, Indomethacin and Acemetacin were chosen for further evaluation.

Cepba = Cepba expression in C2C12 myogenic cells by RT-PCR; format: cell-based, mouse; conditions: treatment for 3 days, FIG. 4D
Description: as §1
(§2) Expression of these and other adipogenic genes is reduced in Nipbl +/− mice (Kawauchi et al. (2009) PLoS Genet.; 5(9):e1000650), which may explain their reduced fat levels, and potentially why individuals with CdLS tend to be lean.

Nipbl mRNA = Nipbl mRNA in C2C12 myogenic cells by RT-PCR; format: cell-based, mouse; conditions: Gapdh as standard, FIG. 4A
Description: as §1, §2

mesenchymal stem cells = conditions: by increasing expression of C/EBPβ and PPARγ2 independently of COX inhibition (Styner et al. 2010); cited from earlier work
Myod1 = Myod1 expression in C2C12 myogenic cells by RT-PCR; format: cell-based, mouse; conditions: treatment for 3 days, FIG. 4B
Description: as §1, §2

Pparg = Pparg expression in C2C12 myogenic cells by RT-PCR; format: cell-based, mouse; conditions: treatment for 3 days, FIG. 4E
Description: as §1, §2

Myog = Myog expression in C2C12 myogenic cells by RT-PCR; format: cell-based, mouse; conditions: treatment for 3 days, FIG. 4C
Description: as §1, §2

Q: For `COc1ccc2c(c1)c(CC(=O)OCC(=O)O)c(C)n2C(=O)c1ccc(Cl)cc1` [Acemetacin], which “occurrence of wing nicking defect (ct^K)” value [1] is on record?
A: reducing the occurrence of this developmental defect

Q: And the “effect on Nipped-B RNA in Nipped-B RNAi cells” value (Nipped-B mRNA)?
A: blocked by Nipped-B RNAi

Q: What about the “Nipped-B gene RNA transcripts” value (Nipped-B mRNA) of the same compound?
A: increase Nipped-B gene RNA transcripts

Q: And the “N^spl-1 eye phenotype (eye size)” value [2]?
A: enhances the N^spl-1 phenotype, decreasing the size of the eye

Q: And the “effect of cohesin depletion on expression of other genes” value (cohesin-dependent genes)?
A: reduce the effect of cohesin depletion

Q: And the toxicity [3]?
A: some toxicity

Q: What about the “growth rate and/or growth maxima of mutant yeast strains” value [4] of the same compound?
A: improved the growth of the mutant strains

Q: Which “expression of Cepba adipogenic gene” value (Cepba) does the source give for `COc1ccc2c(c1)c(CC(=O)O)c(C)n2C(=O)c1ccc(Cl)cc1` [Indomethacin] here?
A: increased expression

Q: And the “occurrence of wing nicking defect (ct^K)” value [1]?
A: reducing the occurrence of this developmental defect

Q: And the “expression of Nipbl” value (Nipbl mRNA)?
A: increases expression

Q: And the adipogenesis (mesenchymal stem cells)?
A: promotes adipogenesis

Q: What about the “expression of Myod1 myogenic gene” value (Myod1) of the same compound?
A: reduced expression

Q: What about the “effect on Nipped-B RNA in Nipped-B RNAi cells” value (Nipped-B mRNA) of the same compound?
A: blocked by Nipped-B RNAi

Q: And the “Nipped-B gene RNA transcripts” value (Nipped-B mRNA)?
A: increase Nipped-B gene RNA transcripts

Q: And the “effect of cohesin depletion on expression of other genes” value (cohesin-dependent genes)?
A: reduce the effect of cohesin depletion

Q: And the “expression of Pparg adipogenic gene” value (Pparg)?
A: increased expression

Q: What about the “growth rate and/or growth maxima of mutant yeast strains” value [4] of the same compound?
A: improved the growth of the mutant strains

Q: What about the “expression of Myog myogenic gene” value (Myog) of the same compound?
A: reduced expression
